Here are results for 91 compounds from publication PMC12040169 (PLOS Biology, 2025).

SMILES strings stand for the structures.

One data set in a line: in vitro. Conditions: human, hela cells, % viability.
For the compound `Cc1ncc(-c2ccc3ccccc3c2)s1` [CBK019439B], the viability (as a rule, a read-out of living cells in per cent, often relative to untreated cells) at 28.5 h, 10 µM is 91.5%. The same measure, in the same setting: to `Cc1cc2cc3n(c2nn1)N=C(Cl)CC3` [CBK019458] belongs 91.4%; to `O=C(Oc1cccc2cccnc12)c1ccc(Br)o1` [CBK019461], 89.4%. On the same count and under the same terms, to `CCCCCC1CC(CC(=O)NC(=S)Nc2ccccc2Cl)C(=O)O1` (stereo not shown) [CBK019495] belongs 86.8%. On the same count and under the same terms, to `O=C(O)C1CSC(c2cc3ccccc3o2)N1` (stereo not shown) [CBK019502] belongs 93.7%; to `O=C(Cc1nc2ccccc2[nH]1)N1CCOCC1` [CBK019505], 93.7%. `CCOC(=O)c1[nH]c(=O)[nH]c1CSc1nc(C)cc(C)n1` [CBK019514]: the viability at 28.5 h, 10 µM worked out at 109%.

As for `CCCCSc1nnc(-c2cc3c(C(F)(F)F)nn(C)c3s2)n1C` [CBK019526], the viability at 28.5 h, 10 µM is 97.5%. On to `N#Cc1c2ccccc2cn1Cc1cccc(Cl)c1` [CBK019531], for which the viability at 28.5 h, 10 µM came to 82.6%.

In the case of `Oc1cc2nnnn2nc1-c1ccccc1` [CBK019550], the viability at 28.5 h, 10 µM was found to be 101%. Still for that read-out and setting: to `CC1(C)CC(N(Cc2ccccc2)C(=O)Cc2ccco2)CCO1` (stereo not shown) [CBK019561] belongs 95.9%; to `Brc1nc2c3c(nc(N4CCOCC4)c2s1)CCCC3` [CBK019604], 83.4%. Take `NC(=O)CC1C=CS(=O)(=O)C1` (stereo not shown) [CBK019653]: the viability at 28.5 h, 10 µM came to 76.7%.

With `CCOc1cc(C(=S)N2CCCCC2)ccc1OC(=O)c1ccccc1Cl` [CBK019660], the viability at 28.5 h, 10 µM turned out to be 98.9%. The same measure, in the same setting: the same measure for `CC1=Nc2c(ccc3nsnc23)NC(=O)C1` [CBK019676]: 97.1%; for `C#CCOC(=O)Nc1cnc(N2CCOCC2)c(C(F)(F)F)c1` [CBK019679]: 90.5%. Still for that read-out and setting: the same measure for `CSc1nc(=O)c(CCC(=O)O)n[nH]1` [CBK019689]: 110%; for `CC(C)/N=C1/N[C@@H]2CS(=O)(=O)C[C@H]2O1` [CBK019692G]: 87%; for `CCc1nc(C)ccc1OCC(O)CNC(C)(C)C` (stereo not shown) [CBK019698]: 94.3%. Same read-out and setting: to `Cc1ccc(-c2csc3ncn4nnnc4c23)cc1` [CBK019710] belongs 92.5%; to `O=C(O)COc1cccc2nsnc12` [CBK019749], 95.1%; to `CCn1c2ccccc2c2cc(C(N)=O)c(N)nc21` [CBK019787], 85.2%.

In the case of `CSc1nn(C)c(=O)c2c3c(sc12)CCC3` [CBK019796], the viability at 28.5 h, 10 µM stood at 83.7%. In the case of `CC(=O)Nc1ccc(C2=NC3SC(c4ccc(NC(C)=O)cc4)=NC3S2)cc1` (stereo not shown) [CBK019799], the viability at 28.5 h, 10 µM turned out to be 103%. Take `CN(C)c1nc(N(C)C)n(C(=O)c2cccs2)n1` [CBK019805]: the viability at 28.5 h, 10 µM worked out at 99.3%. Regarding `Cc1nc(N)c(CNC2CCCCC2)c(O)n1` [CBK019809], the viability at 28.5 h, 10 µM is 112%. As to `O=C(NCC1CCCO1)NC(=O)c1nsc2ccccc12` (stereo not shown) [CBK019827], the viability at 28.5 h, 10 µM was 113%.

`CSC1=Nc2cc(Cl)ccc2SCC1` [CBK019829]: the viability at 28.5 h, 10 µM turned out to be 98.1%. The same measure, in the same setting: to `Cc1cc(C)nc(SCc2csc(N)n2)n1` [CBK019838] belongs 106%; to `Brc1ccsc1-c1csc(-c2ccccc2)n1` [CBK019859], 102%; to `CC(C)CSc1nsc(N)n1` [CBK019938], 97.1%. `CC1(C)CC(=O)c2sc(NC(=O)c3cccc(C(F)(F)F)c3)nc2C1` [CBK019941]: the viability at 28.5 h, 10 µM amounted to 94.2%. Turning to `O=C(CN1CCOCC1)N/N=C/c1ccncc1` [CBK019949], the viability at 28.5 h, 10 µM stood at 83.8%.

`O=C(Nc1ccc(F)cc1F)Nc1cc(Cl)sc1Cl` [CBK019967]: the viability at 28.5 h, 10 µM worked out at 102%. Regarding `CCCCCC1/C(=N\O)CCC1CC(=O)OC` (stereo not shown) [CBK019978], the viability at 28.5 h, 10 µM is 93.9%.

Turning to `NC1=NC(=O)C2(COC(c3cccnc3)OC2)S1` (stereo not shown) [CBK019981], the viability at 28.5 h, 10 µM was 91.3%. `CC(CCCC(C)(C)O)CC1OCCC(C)O1` (stereo not shown) [CBK019986]: the viability at 28.5 h, 10 µM was determined as 115%. As for `CC(C)S(=O)(=O)CC(=O)Nc1ccc(C(=O)O)cc1` [CBK020001], the viability at 28.5 h, 10 µM came to 96.6%. Same read-out and setting: the same measure for `O=C1CSC2(CCCCC2)N1Nc1ccccc1` [CBK020047]: 101%; for `Cc1c(N)c(=O)n2nc(C(F)(F)F)nc2n1C` [CBK020172]: 90.4%. With `CC(=O)NC1=NC(=O)CN1C` [CBK020181], the viability at 28.5 h, 10 µM was found to be 107%. Turning to `COC(=O)NC(NC(=O)OC)C(=O)c1ccccc1` [CBK020208], the viability at 28.5 h, 10 µM is 100%. Take `CC(=O)Nc1nonc1OCCOc1nonc1NC(C)=O` [CBK020227]: the viability at 28.5 h, 10 µM came out at 113%. The same measure, in the same setting: to `C/C(=N\NC(=O)C(C)Sc1ncccn1)C(C)(C)C` (stereo not shown) [CBK020243] belongs 104%. On the same count and under the same terms, the same measure for `O=S(=O)(c1ccccc1)C1CCCCO1` (stereo not shown) [CBK020284]: 91.3%; for `COc1cnn(-c2ccccc2)c(=O)c1N(C)C` [CBK020317]: 94%; for `CN1CCC(=NNC(=O)CCSc2ccc(Cl)cc2)CC1` [CBK020372]: 99.6%. For the compound `CCSc1nnc2c3c(sc2c1N)CC(C)(C)OC3` [CBK020374], the viability at 28.5 h, 10 µM was determined as 95.4%. Still for that read-out and setting: to `O=C(O)CCC(=O)Nc1ccc(Sc2ccc([N+](=O)[O-])cc2)cc1` [CBK020438] belongs 92.5%; to `COc1ccc(-c2nc3c(c(=S)[nH]2)CCCC3)cc1` [CBK020440], 99.2%; to `CC1(C)CN=C(N2CCN(C3=NCC(C)(C)S3)CC2)S1` [CBK020461], 93.8%.

Consider `NS(=O)(=O)c1ccccc1Sc1ccccc1` [CBK020524], for which the viability at 28.5 h, 10 µM turned out to be 89%. As for `CCC1(C)Cc2sc3[nH]c(=O)c(SCC(N)=O)nc3c2CO1` (stereo not shown) [CBK020581], the viability at 28.5 h, 10 µM was 87.3%. Turning to `CCCCc1ccc(Nc2csc(N)n2)cc1` [CBK020594], the viability at 28.5 h, 10 µM was found to be 82.5%. Same read-out and setting: to `CCOC1(c2ccccc2)N=C2C(Cl)=CC(C(F)(F)F)=CN2N=C1c1ccccc1` (stereo not shown) [CBK020634] belongs 91.4%; to `Nc1nc2c3c(c(-c4ccccc4)nc2[nH]1)CCCC3` [CBK020648], 78.2%. On to `Nc1c(C(=S)c2cccs2)oc2c1C(c1ccccc1)CC(=O)N2` (stereo not shown) [CBK020690], for which the viability at 28.5 h, 10 µM was 42.2%. On the same count and under the same terms, to `O=C(NC(=S)CC1C=NCS1)c1ccccc1` (stereo not shown) [CBK020794] belongs 107%; to `COCCNC(=O)CSc1cc(Cl)nc(Cl)c1` [CBK020796], 88.3%; to `COc1ccc(C2NC(C(=O)O)CS2)cc1CN1C[C@@H]2C[C@H](C1)c1cccc(=O)n1C2` (stereo partly shown) [CBK020798], 93.8%. The same measure, in the same setting: the same measure for `CC1=CC(C)(NC(N)=O)NC(=S)N1` (stereo not shown) [CBK020817]: 112%. As to `Cc1c(-c2csc(CC#N)n2)sc2ccccc12` [CBK020828], the viability at 28.5 h, 10 µM was determined as 65.6%. With `O=C(O)COc1ccccc1/C=N\N1CCN(Cc2ccccc2Cl)CC1` [CBK020891], the viability at 28.5 h, 10 µM came out at 96.7%. On the same count and under the same terms, the same measure for `CC(C)NC(=O)Nc1ccccc1-c1ncn(C)n1` [CBK020922]: 95.6%; for `FC(F)(F)c1cc(/C=C/c2cccs2)n[nH]1` [CBK020924]: 92.1%. The same measure, in the same setting: to `CCN(CC)c1ccc(SC)n1C` [CBK020929] belongs 104%; to `N/C(=N/O)c1ccc(-n2cncn2)nc1` [CBK020936], 104%. On the same count and under the same terms, to `CNCCc1n[nH]c(N)n1` [CBK020959] belongs 89.4%. For `O=C(c1ccccc1)n1cc(-c2ccccn2)c(N2CCOCC2)n1` [CBK021010], the viability at 28.5 h, 10 µM turned out to be 100%. For the compound `Cc1nn(C2CCCO2)c(=O)nc1N` (stereo not shown) [CBK021028], the viability at 28.5 h, 10 µM was determined as 101%. The same measure, in the same setting: to `N/C(=N/c1ccccn1)C(F)(F)F` [CBK021049] belongs 90.1%; to `Cn1c(=O)n(C)c2cc(NC(=O)C(F)(F)F)ccc21` [CBK021127], 80.9%. `O=C(O)C(Cc1ccccc1)n1cnnn1` (stereo not shown) [CBK021162]: the viability at 28.5 h, 10 µM was found to be 109%. On the same count and under the same terms, to `O=C1N(Cc2ccc(Br)cc2)CCc2cncn21` [CBK021187] belongs 79.7%; to `COc1cc(OC)c(CN(C)CCN(C)C)cc1Br` [CBK021255], 88.6%; to `O=C(Cc1ccccc1)N/N=C/c1nnco1` [CBK021274], 121%. Turning to `CC(C)(C)S(=O)(=O)CC(N)=S` [CBK021304], the viability at 28.5 h, 10 µM was 91.1%.

`CN(CCc1ccccn1)Cc1cc(Br)cs1` [CBK021314]: the viability at 28.5 h, 10 µM was 92.8%. `COC(=O)c1ccccc1S(=O)(=O)Nc1nnn[nH]1` [CBK021321]: the viability at 28.5 h, 10 µM came to 97.8%.

Consider `CC1CC(=O)C2C=C(c3ccc(Br)cc3)NN=C2C1` (stereo not shown) [CBK021352], for which the viability at 28.5 h, 10 µM came to 91.8%. As to `Clc1ccc(CSCCn2cccc2)cc1` [CBK021366], the viability at 28.5 h, 10 µM was determined as 92%. On the same count and under the same terms, the same measure for `Nc1nnc(CSc2cccc3cccnc23)o1` [CBK021397]: 108%; for `N#Cc1nc(=O)[nH]cc1N` [CBK021411]: 90.8%; for `C1=CC2N=C(SCc3ccccc3)OC2C=C1` (stereo not shown) [CBK021412]: 92.6%. Turning to `Cc1csc(NS(=O)(=O)CC(C)C)n1` [CBK021434], the viability at 28.5 h, 10 µM is 89.1%.

Take `COc1ccccc1C1OC(=O)C[C@@H]1C(=O)Nc1cc(C(C)(C)C)on1` (stereo partly shown) [CBK021439]: the viability at 28.5 h, 10 µM was determined as 110%. For the compound `CC(C)=NNC(=N)Nc1ccccc1` [CBK021452], the viability at 28.5 h, 10 µM amounted to 90.4%. The same measure, in the same setting: to `CCSC(C)CC1C/C(=N/O)c2c(C)noc2C1` (stereo not shown) [CBK021455] belongs 88.4%. Still for that read-out and setting: the same measure for `Brc1ccc(CN2CCN3CCCC3C2C2CCCCC2)o1` (stereo not shown) [CBK021456]: 82.6%; for `CN(C)c1oc(-c2ccccc2)nc1S(=O)(=O)c1ccccc1` [CBK021477]: 105%.

Staying with this data set, now noted: human, hela cells, % viability, bulk resorufin, single well.
For the compound `CC1=CC(C)C(COC(N)=O)(COC(N)=O)C(C)C1` (stereo not shown) [CBK020974], the viability at 28.5 h, 10 µM worked out at 93.7%.
